Measurements taken from ChEMBL document CHEMBL3272121, “Hypolipidemic analogues of ethyl 4-benzyloxybenzoate” (J Med Chem, 1977).

Assays:
Rattus norvegicus [1] = experiment: Hypolipidemic activity in CFY Sprague-Dawley rat assessed as serum triglyceride level at 0.25% dietary level administered for 7 days relative to control; type: functional
Rattus norvegicus [2] = experiment: Hypolipidemic activity in CFY Sprague-Dawley rat assessed as liver lipid per gm of liver at 0.2% dietary level administered for 7 days relative to control; type: functional
Rattus norvegicus [3] = experiment: Toxicity in CFY Sprague-Dawley rat assessed as body weight gain at 0.25% dietary level administered for 7 days relative to control; type: organism-based; settings: in vivo, po, 168 h
Rattus norvegicus [4] = experiment: Hypolipidemic activity in CFY Sprague-Dawley rat assessed as serum triglyceride level at 1% dietary level administered for 7 days relative to control; type: functional
Rattus norvegicus [5] = experiment: Toxicity in CFY Sprague-Dawley rat assessed as relative liver weight at 1% dietary level administered for 7 days relative to control; type: organism-based; settings: in vivo, po, 168 h
Rattus norvegicus [6] = experiment: Toxicity in CFY Sprague-Dawley rat assessed as body weight gain at 1% dietary level administered for 7 days relative to control; type: organism-based; settings: in vivo, po, 168 h
Rattus norvegicus [7] = experiment: Hypolipidemic activity in CFY Sprague-Dawley rat assessed as serum cholesterol level at 1% dietary level administered for 7 days relative to control; type: functional
Rattus norvegicus [8] = experiment: Toxicity in CFY Sprague-Dawley rat assessed as relative liver weight at 0.25% dietary level administered for 7 days relative to control; type: organism-based; settings: in vivo, po, 168 h
Rattus norvegicus [9] = experiment: Toxicity in CFY Sprague-Dawley rat assessed as relative liver weight at 0.2% dietary level administered for 7 days relative to control; type: organism-based; settings: in vivo, po, 168 h
Liver [10] = experiment: Inhibition of cholesterol biosynthesis from [1-14C]acetate in rat liver slices at […] relative to control; type: functional
Rattus norvegicus [11] = experiment: Hypolipidemic activity in CFY Sprague-Dawley rat assessed as serum cholesterol level at 0.2% dietary level administered for 7 days relative to control; type: functional
Rattus norvegicus [12] = experiment: Hypolipidemic activity in CFY Sprague-Dawley rat assessed as liver lipid per gm of liver at 0.25% dietary level administered for 7 days relative to control; type: functional
Rattus norvegicus [13] = experiment: Toxicity in CFY Sprague-Dawley rat assessed as body weight gain at 0.2% dietary level administered for 7 days relative to control; type: organism-based; settings: in vivo, po, 168 h
Rattus norvegicus [14] = experiment: Hypolipidemic activity in CFY Sprague-Dawley rat assessed as liver lipid per gm of liver at 1% dietary level administered for 7 days relative to control; type: functional
Liver [15] = experiment: Inhibition of fatty acid biosynthesis from [1-14C]acetate in rat liver slices at 5 X 10^-4 M relative to control; type: functional
Rattus norvegicus [16] = experiment: Hypolipidemic activity in CFY Sprague-Dawley rat assessed as serum triglyceride level at 0.2% dietary level administered for 7 days relative to control; type: functional
Rattus norvegicus [17] = experiment: Hypolipidemic activity in CFY Sprague-Dawley rat assessed as serum cholesterol level at 0.25% dietary level administered for 7 days relative to control; type: functional
Rattus norvegicus [18] = experiment: Hypolipidemic activity in CFY Sprague-Dawley rat assessed as serum cholesterol level at 0.1% dietary level administered for 7 days relative to control; type: functional
Rattus norvegicus [19] = experiment: Hypolipidemic activity in CFY Sprague-Dawley rat assessed as serum triglyceride level at 0.1% dietary level administered for 7 days relative to control; type: functional
Rattus norvegicus [20] = experiment: Toxicity in CFY Sprague-Dawley rat assessed as relative liver weight at 0.1% dietary level administered for 7 days relative to control; type: organism-based; settings: in vivo, po, 168 h
Rattus norvegicus [21] = experiment: Hypolipidemic activity in CFY Sprague-Dawley rat assessed as liver lipid per gm of liver at 0.1% dietary level administered for 7 days relative to control; type: functional
Rattus norvegicus [22] = experiment: Toxicity in CFY Sprague-Dawley rat assessed as body weight gain at 0.1% dietary level administered for 7 days relative to control; type: organism-based; settings: in vivo, po, 168 h
Liver [23] = experiment: Inhibition of fatty acid biosynthesis from [1-14C]acetate in rat liver slices at 1 X 10^-3 M relative to control; type: functional
Liver [24] = experiment: Inhibition of cholesterol biosynthesis from [1-14C]acetate in rat liver slices at 1 X 10^-3 M relative to control; type: functional
Liver [25] = experiment: Inhibition of fatty acid biosynthesis from [1-14C]acetate in rat liver slices at 1 X 10^-4 M relative to control; type: functional
Liver [26] = experiment: Inhibition of cholesterol biosynthesis from [1-14C]acetate in rat liver slices at 1 X 10^-4 M relative to control; type: functional
Rattus norvegicus [27] = experiment: Hypolipidemic activity in CFY Sprague-Dawley rat assessed as liver lipid per gm of liver at 0.5% dietary level administered for 7 days relative to control; type: functional
Rattus norvegicus [28] = experiment: Hypolipidemic activity in CFY Sprague-Dawley rat assessed as serum triglyceride level at 0.5% dietary level administered for 7 days relative to control; type: functional
Rattus norvegicus [29] = experiment: Toxicity in CFY Sprague-Dawley rat assessed as relative liver weight at 0.5% dietary level administered for 7 days relative to control; type: organism-based; settings: in vivo, po, 168 h
Rattus norvegicus [30] = experiment: Hypolipidemic activity in CFY Sprague-Dawley rat assessed as serum cholesterol level at 0.5% dietary level administered for 7 days relative to control; type: functional
Rattus norvegicus [31] = experiment: Toxicity in CFY Sprague-Dawley rat assessed as body weight gain at 0.5% dietary level administered for 7 days relative to control; type: organism-based; settings: in vivo, po, 168 h

## CCOC(=O)c1ccc(OCc2ccc(C)cc2)cc1
Rattus norvegicus [1]
  Activity: -54%
Rattus norvegicus [2]
  Activity: -7%
Rattus norvegicus [3]
  Activity: -4%
Rattus norvegicus [4]
  Activity: -46%
Rattus norvegicus [5]
  Activity: 19%
Rattus norvegicus [6]
  Activity: -19%
Rattus norvegicus [7]
  Activity: -13%
Rattus norvegicus [8]
  Activity: 4%
Rattus norvegicus [9]
  Activity: 2%
Liver [10]
  inhibition at 500 µM: 47%
Rattus norvegicus [11]
  Activity: -17%
Rattus norvegicus [12]
  Activity: 1%
Rattus norvegicus [13]
  Activity: 14%
Rattus norvegicus [14]
  Activity: 3%
Liver [15]
  inhibition at 500 µM: 47%
Rattus norvegicus [16]
  Activity: -42%
Rattus norvegicus [17]
  Activity: -18%

## CCOC(=O)Cc1ccc(OCc2ccc(C)cc2)cc1
Rattus norvegicus [1]
  Activity: -68%
Rattus norvegicus [18]
  Activity: -8%
Rattus norvegicus [3]
  Activity: -18%
Rattus norvegicus [19]
  Activity: -49%
Rattus norvegicus [8]
  Activity: 20%
Rattus norvegicus [20]
  Activity: 9%
Rattus norvegicus [21]
  Activity: 0%
Rattus norvegicus [12]
  Activity: 5%
Rattus norvegicus [22]
  Activity: 16%
Rattus norvegicus [17]
  Activity: -45%

## O=C(O)c1ccc(OCc2ccccc2)cc1
Rattus norvegicus [1]
  Activity: -65%
Rattus norvegicus [2]
  Activity: 8%
Rattus norvegicus [3]
  Activity: -5%
Rattus norvegicus [4]
  Activity: -34%
Rattus norvegicus [5]
  Activity: 50%
Rattus norvegicus [6]
  Activity: -62%
Rattus norvegicus [7]
  Activity: -24%
Rattus norvegicus [8]
  Activity: 10%
Rattus norvegicus [9]
  Activity: 0%
Liver [10]
  inhibition at 500 µM: 92%
Rattus norvegicus [11]
  Activity: -14%
Rattus norvegicus [12]
  Activity: -4%
Rattus norvegicus [13]
  Activity: -13%
Rattus norvegicus [14]
  Activity: 1%
Liver [15]
  inhibition at 500 µM: 65%
Rattus norvegicus [16]
  Activity: -50%
Rattus norvegicus [17]
  Activity: -23%

## CCOC(=O)c1ccc(OCc2ccc(F)cc2)cc1
Rattus norvegicus [1]
  Activity: -48%
Rattus norvegicus [3]
  Activity: 9%
Rattus norvegicus [8]
  Activity: 8%
Liver [10]
  inhibition at 500 µM: 86%
Rattus norvegicus [12]
  Activity: 1%
Liver [15]
  inhibition at 500 µM: 12%
Rattus norvegicus [17]
  Activity: -31%

## CCOC(=O)c1ccc(OCc2ccc(Br)cc2)cc1
Rattus norvegicus [1]
  Activity: -52%
Rattus norvegicus [2]
  Activity: -2%
Rattus norvegicus [3]
  Activity: 1%
Rattus norvegicus [4]
  Activity: -39%
Rattus norvegicus [5]
  Activity: 20%
Rattus norvegicus [6]
  Activity: -8%
Rattus norvegicus [7]
  Activity: -24%
Rattus norvegicus [8]
  Activity: 10%
Rattus norvegicus [9]
  Activity: 8%
Liver [10]
  inhibition at 500 µM: 98%
Rattus norvegicus [11]
  Activity: -23%
Rattus norvegicus [12]
  Activity: 0%
Rattus norvegicus [13]
  Activity: 17%
Rattus norvegicus [14]
  Activity: 4%
Liver [15]
  inhibition at 500 µM: 84%
Rattus norvegicus [16]
  Activity: -62%
Rattus norvegicus [17]
  Activity: -29%

## CCC(C(=O)O)c1ccccc1 (stereo unspecified)
Liver [23]
  inhibition at 1000 µM: 7%
Liver [24]
  inhibition at 1000 µM: 30%

## CCOC(=O)Cc1ccc(OCc2ccccc2OC)cc1
Rattus norvegicus [1]
  Activity: -57%
Rattus norvegicus [2]
  Activity: 5%
Rattus norvegicus [3]
  Activity: 6%
Rattus norvegicus [4]
  Activity: -53%
Rattus norvegicus [5]
  Activity: 19%
Rattus norvegicus [6]
  Activity: -16%
Rattus norvegicus [7]
  Activity: -21%
Rattus norvegicus [8]
  Activity: 4%
Rattus norvegicus [9]
  Activity: 8%
Liver [25]
  inhibition at 100 µM: 48%
Rattus norvegicus [11]
  Activity: -22%
Rattus norvegicus [12]
  Activity: 7%
Liver [26]
  inhibition at 100 µM: 57%
Rattus norvegicus [13]
  Activity: 6%
Rattus norvegicus [14]
  Activity: 20%
Rattus norvegicus [16]
  Activity: -64%
Rattus norvegicus [17]
  Activity: -24%

## CCCc1ccc(OCc2ccccc2)c(OC)c1
Rattus norvegicus [1]
  Activity: 12%
Rattus norvegicus [3]
  Activity: 0%
Rattus norvegicus [8]
  Activity: 17%
Liver [10]
  inhibition at 500 µM: 34%
Rattus norvegicus [12]
  Activity: 4%
Liver [15]
  inhibition at 500 µM: 3%
Rattus norvegicus [17]
  Activity: 15%

## CCOC(=O)c1ccc(OCc2ccccc2[N+](=O)[O-])cc1
Rattus norvegicus [1]
  Activity: -21%
Rattus norvegicus [3]
  Activity: 8%
Rattus norvegicus [8]
  Activity: 12%
Liver [10]
  inhibition at 500 µM: 82%
Rattus norvegicus [12]
  Activity: 3%
Liver [15]
  inhibition at 500 µM: 69%
Rattus norvegicus [17]
  Activity: -20%

## CCOC(=O)CCc1ccc(OCc2ccc(F)cc2)cc1
Rattus norvegicus [1]
  Activity: -43%
Rattus norvegicus [27]
  Activity: 8%
Rattus norvegicus [3]
  Activity: -1%
Rattus norvegicus [28]
  Activity: -59%
Rattus norvegicus [29]
  Activity: 15%
Rattus norvegicus [8]
  Activity: -5%
Liver [25]
  inhibition at 100 µM: 82%
Rattus norvegicus [12]
  Activity: 7%
Rattus norvegicus [30]
  Activity: -19%
Liver [26]
  inhibition at 100 µM: 87%
Rattus norvegicus [31]
  Activity: 4%
Rattus norvegicus [17]
  Activity: -20%

## CCOC(=O)c1ccc(OCc2cccc(C(F)(F)F)c2)cc1
Rattus norvegicus [1]
  Activity: 8%
Rattus norvegicus [3]
  Activity: 12%
Rattus norvegicus [8]
  Activity: 9%
Liver [10]
  inhibition at 500 µM: 99%
Liver [15]
  inhibition at 500 µM: 92%
Rattus norvegicus [17]
  Activity: -11%

## CCOC(=O)Cc1ccc(OCc2ccccc2)cc1
Rattus norvegicus [1]
  Activity: -84%
Rattus norvegicus [3]
  Activity: -23%
Rattus norvegicus [8]
  Activity: 28%
Liver [10]
  inhibition at 500 µM: 93%
Rattus norvegicus [12]
  Activity: 65%
Liver [15]
  inhibition at 500 µM: 100%
Rattus norvegicus [17]
  Activity: -18%

## CCOC(=O)c1ccc(OCc2ccc(C)c(C)c2)cc1
Rattus norvegicus [1]
  Activity: -47%
Rattus norvegicus [3]
  Activity: -7%
Rattus norvegicus [8]
  Activity: 10%
Liver [10]
  inhibition at 500 µM: 97%
Rattus norvegicus [12]
  Activity: 13%
Liver [15]
  inhibition at 500 µM: 94%
Rattus norvegicus [17]
  Activity: -19%

## CCOC(=O)c1ccc(OCc2cccc(C)c2)cc1
Rattus norvegicus [1]
  Activity: -54%
Rattus norvegicus [3]
  Activity: -10%
Rattus norvegicus [8]
  Activity: -2%
Liver [10]
  inhibition at 500 µM: 97%
Liver [15]
  inhibition at 500 µM: 82%
Rattus norvegicus [17]
  Activity: -18%

## CCOC(=O)Cc1ccc(OCc2ccc(Cl)cc2)cc1
Rattus norvegicus [1]
  Activity: -91%
Rattus norvegicus [3]
  Activity: -10%
Rattus norvegicus [8]
  Activity: 14%
Liver [10]
  inhibition at 500 µM: 68%
Rattus norvegicus [12]
  Activity: 8%
Liver [15]
  inhibition at 500 µM: 59%
Rattus norvegicus [17]
  Activity: -28%

## CCCCCCCCCc1ccc(OCc2ccccc2)cc1
Rattus norvegicus [1]
  Activity: -67%
Rattus norvegicus [3]
  Activity: -41%
Rattus norvegicus [8]
  Activity: -5%
Liver [10]
  inhibition at 500 µM: 67%
Liver [15]
  inhibition at 500 µM: 60%
Rattus norvegicus [17]
  Activity: -12%

## CCOC(=O)c1ccc(OCc2ccccc2)cc1
Rattus norvegicus [1]
  Activity: -61%
Rattus norvegicus [18]
  Activity: -9%
Rattus norvegicus [27]
  Activity: 10%
Rattus norvegicus [2]
  Activity: -3%
Rattus norvegicus [3]
  Activity: 1%
Rattus norvegicus [4]
  Activity: -29%
Rattus norvegicus [5]
  Activity: 37%
Rattus norvegicus [28]
  Activity: -41%
Rattus norvegicus [6]
  Activity: -45%
Rattus norvegicus [7]
  Activity: -20%
Rattus norvegicus [29]
  Activity: 22%
Rattus norvegicus [19]
  Activity: -14%
Rattus norvegicus [8]
  Activity: 8%
Rattus norvegicus [9]
  Activity: 8%
Rattus norvegicus [20]
  Activity: 9%
Liver [25]
  inhibition at 100 µM: -7%
Liver [10]
  inhibition at 500 µM: 68%
Rattus norvegicus [21]
  Activity: 0%
Rattus norvegicus [11]
  Activity: -20%
Rattus norvegicus [12]
  Activity: 2%
Rattus norvegicus [30]
  Activity: -18%
Liver [26]
  inhibition at 100 µM: 42%
Rattus norvegicus [13]
  Activity: -8%
Rattus norvegicus [31]
  Activity: -40%
Rattus norvegicus [22]
  Activity: 6%
Rattus norvegicus [14]
  Activity: 9%
Liver [15]
  inhibition at 500 µM: 91%
Rattus norvegicus [16]
  Activity: -67%
Rattus norvegicus [17]
  Activity: -17%
